Results published in the NIST ThermoML archive (doi:10.1016/j.fluid.2012.05.002).

Experiment: osmotic coefficient (dimensionless); mn = molality of the nth substance listed, in mol/kg
Conditions: 298.1 K, 20 kPa, Liquid, isopiestic method

O=C(O)C(O)C(O)C(=O)O (centres undefined) [2,3-dihydroxybutanedioic acid] + O
Conditions	osmotic coefficient
m1 = 0.3554	0.461
m1 = 0.51	0.382
m1 = 0.698	0.313
m1 = 1.074	0.286
m1 = 1.268	0.285
m1 = 1.739	0.283
m1 = 2.361	0.292
m1 = 2.404	0.292
m1 = 3.449	0.322
m1 = 4.311	0.351
m1 = 5.203	0.379
m1 = 6.517	0.416
m1 = 7.737	0.437

CC(=O)O [acetic acid] + O
Conditions	osmotic coefficient
m1 = 0.3254	1.034
m1 = 0.4489	1.014
m1 = 0.6191	0.991
m1 = 0.7688	0.9736
m1 = 1.029	0.9465
m1 = 1.262	0.925
m1 = 1.638	0.8942
m1 = 2.236	0.852
m1 = 2.588	0.8295
m1 = 3.693	0.768
m1 = 4.687	0.72
m1 = 6.292	0.652
m1 = 9.635	0.535
m1 = 14.92	0.375

CCCC(=O)O [butanoic acid] + O
Conditions	osmotic coefficient
m1 = 0.2966	1.051
m1 = 0.3972	1.03
m1 = 0.7027	0.9809
m1 = 0.9898	0.9364
m1 = 1.539	0.8612
m1 = 2.501	0.755
m1 = 2.652	0.74
m1 = 4.544	0.598
m1 = 5.353	0.553
m1 = 6.364	0.506
m1 = 7.777	0.454
m1 = 9.598	0.402
m1 = 12	0.351
m1 = 15.29	0.302
m1 = 17.6	0.278

O=C(O)CC(O)(CC(=O)O)C(=O)O [citric acid] + O
Conditions	osmotic coefficient
m1 = 0.2947	1.058
m1 = 0.3878	1.058
m1 = 0.6515	1.058
m1 = 0.8686	1.067
m1 = 1.039	1.073
m1 = 1.225	1.082
m1 = 1.753	1.12
m1 = 2.327	1.17
m1 = 2.699	1.194
m1 = 3.133	1.23
m1 = 3.816	1.288
m1 = 4.436	1.34
m1 = 5.134	1.4
m1 = 5.522	1.44
m1 = 5.987	1.47
m1 = 6.701	1.52
m1 = 7.6	1.58
m1 = 8.205	1.62

O=CO [formic acid] + O
Conditions	osmotic coefficient
m1 = 0.3334	1.047
m1 = 0.6596	1.078
m1 = 0.7817	1.089
m1 = 0.9947	1.109
m1 = 1.248	1.133
m1 = 1.439	1.151
m1 = 1.688	1.173
m1 = 2.27	1.226
m1 = 2.667	1.26
m1 = 2.913	1.28
m1 = 3.395	1.322
m1 = 3.782	1.35
m1 = 4.446	1.41
m1 = 4.836	1.44
m1 = 5.352	1.48
m1 = 5.619	1.49

O=C(O)CC(O)C(=O)O (centres undefined) [hydroxybutanedioic acid] + O
Conditions	osmotic coefficient
m1 = 0.1223	1.343
m1 = 0.2625	0.828
m1 = 0.3917	0.426
m1 = 0.5398	0.351
m1 = 0.8231	0.441
m1 = 0.9977	0.506
m1 = 1.245	0.528
m1 = 1.848	0.531
m1 = 2.634	0.54
m1 = 3.207	0.554
m1 = 3.996	0.566
m1 = 5.166	0.584
m1 = 6.325	0.613
m1 = 7.352	0.626

O=C(O)CC(=O)O [propanedioic acid] + O
Conditions	osmotic coefficient
m1 = 0.1216	1.144
m1 = 0.3009	0.456
m1 = 0.5079	0.268
m1 = 0.6604	0.274
m1 = 0.7994	0.314
m1 = 1.01	0.354
m1 = 1.08	0.362
m1 = 1.631	0.373
m1 = 2.392	0.401
m1 = 3.127	0.436
m1 = 4.097	0.455
m1 = 5.12	0.469
m1 = 6.369	0.498
m1 = 9.545	0.525

CCC(=O)O [propanoic acid] + O
Conditions	osmotic coefficient
m1 = 0.3425	1.054
m1 = 0.4819	1.036
m1 = 0.6261	1.018
m1 = 0.8086	0.9963
m1 = 1.054	0.9683
m1 = 1.294	0.942
m1 = 1.796	0.892
m1 = 2.261	0.851
m1 = 2.918	0.7984
m1 = 4.125	0.718
m1 = 5.45	0.647
m1 = 7.948	0.549
m1 = 8.132	0.542
m1 = 10.51	0.478
m1 = 12.4	0.438
